# Test results as given in ChEMBL document CHEMBL1201862, “PubChem BioAssay data set” (2004).
# Activity calls are given as the source filed them.
# What was measured:
# [1] = HEp-2 cell cytotoxicity, dose response, cytotoxicity control for RSV inhibitor project, HTS (AID 2410); format: functional; settings: human respiratory syncytial virus
# [2] = microbe, parasite or virus in culture; format: functional; settings: Mycobacterium tuberculosis
# [3] = cells
# [4] = A High Throughput Confirmatory Assay used to Identify Novel Compounds that Inhibit Mycobacterium Tuberculosis in the absence of Glycerol.; format: functional
# [5] = cells; format: functional
# [6] = ADAM10 inhibitors, peptide cleavage, dose response, biochemical, QFRET (AID 743254);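 note: ADAM10 enzyme with the DM2 quenched FRET peptide as substrate; EDANS fluorescence gain as the protease cuts the substrate; inhibitor potency against ADAM10 proteolytic activity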
# [7] = target: Disintegrin and metalloproteinase domain-containing protein 17 (Homo sapiens, UniProt P78536); assay: ADAM17 protease inhibitors, dose response, counter-screen for ADAM10 exosite inhibitor project, biochemical, quenched FRET substrate (AID 743253)
# Disintegrin and metalloproteinase domain-containing protein 17, sequence (P78536 whole entry, the tested form may be a part): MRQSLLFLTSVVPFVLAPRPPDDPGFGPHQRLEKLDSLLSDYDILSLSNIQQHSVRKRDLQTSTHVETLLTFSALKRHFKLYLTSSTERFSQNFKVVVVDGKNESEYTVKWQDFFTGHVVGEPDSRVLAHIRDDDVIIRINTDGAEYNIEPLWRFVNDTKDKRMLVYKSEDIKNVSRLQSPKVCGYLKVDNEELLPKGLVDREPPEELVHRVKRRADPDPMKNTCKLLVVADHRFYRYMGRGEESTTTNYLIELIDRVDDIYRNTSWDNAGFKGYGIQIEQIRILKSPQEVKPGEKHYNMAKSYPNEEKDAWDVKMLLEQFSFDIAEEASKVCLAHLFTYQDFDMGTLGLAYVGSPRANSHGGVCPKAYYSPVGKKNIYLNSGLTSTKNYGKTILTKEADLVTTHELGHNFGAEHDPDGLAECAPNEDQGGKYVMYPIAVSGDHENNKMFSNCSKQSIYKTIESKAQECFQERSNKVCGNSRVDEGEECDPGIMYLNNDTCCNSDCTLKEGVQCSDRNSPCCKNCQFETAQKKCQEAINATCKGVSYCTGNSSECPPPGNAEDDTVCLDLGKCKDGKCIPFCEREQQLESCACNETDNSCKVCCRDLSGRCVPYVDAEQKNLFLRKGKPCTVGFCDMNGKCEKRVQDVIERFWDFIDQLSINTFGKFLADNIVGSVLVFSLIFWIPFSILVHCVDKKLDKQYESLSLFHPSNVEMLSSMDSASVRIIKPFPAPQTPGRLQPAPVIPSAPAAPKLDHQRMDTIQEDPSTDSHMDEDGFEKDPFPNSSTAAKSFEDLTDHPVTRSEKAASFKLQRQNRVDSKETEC
# [8] = target: 5-hydroxytryptamine receptor 1E (Homo sapiens, UniProt P28566); assay: Counterscreen assay for S1P3 antagonists: Dose response cell-based high throughput screening assay to identify antagonists of the 5-Hydroxytryptamine Receptor Subtype 1E (5HT1E). [Related pubchem assays: 1429, 485 ]; format: functional
# 5-hydroxytryptamine receptor 1E, sequence (P28566 whole entry): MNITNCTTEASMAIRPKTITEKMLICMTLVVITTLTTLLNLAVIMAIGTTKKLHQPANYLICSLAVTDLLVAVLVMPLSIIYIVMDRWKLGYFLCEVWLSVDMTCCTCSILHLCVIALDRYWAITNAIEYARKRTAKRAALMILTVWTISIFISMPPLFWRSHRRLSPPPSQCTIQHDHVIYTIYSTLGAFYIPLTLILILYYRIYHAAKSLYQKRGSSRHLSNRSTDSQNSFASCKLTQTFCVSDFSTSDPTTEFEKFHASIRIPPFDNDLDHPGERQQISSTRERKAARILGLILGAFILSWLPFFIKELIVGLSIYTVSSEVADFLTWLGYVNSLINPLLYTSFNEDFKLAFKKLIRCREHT
# [9] = target: Sphingosine 1-phosphate receptor 3 (Homo sapiens, UniProt Q99500); assay: Dose response cell-based high throughput screening assay for antagonists of the Sphingosine 1-Phosphate Receptor 3 (S1P3). [Related pubchem assays: 1429, 485 ]; format: functional
# Sphingosine 1-phosphate receptor 3, sequence (Q99500 whole entry): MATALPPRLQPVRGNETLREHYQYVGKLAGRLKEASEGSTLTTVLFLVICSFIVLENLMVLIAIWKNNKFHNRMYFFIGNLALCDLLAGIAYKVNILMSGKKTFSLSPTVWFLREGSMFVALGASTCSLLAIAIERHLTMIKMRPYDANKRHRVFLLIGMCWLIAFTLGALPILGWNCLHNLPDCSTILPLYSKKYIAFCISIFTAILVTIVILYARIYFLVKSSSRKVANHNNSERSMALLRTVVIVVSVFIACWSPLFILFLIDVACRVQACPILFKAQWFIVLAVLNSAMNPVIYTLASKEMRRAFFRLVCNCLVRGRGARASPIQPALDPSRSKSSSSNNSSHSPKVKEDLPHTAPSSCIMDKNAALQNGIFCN
# [10] = target: Lysosomal acid glucosylceramidase (Homo sapiens, UniProt P04062); assay: Dose response cell-based high throughput screening assay to identify enhancers of beta-glucosidase activity. [Related pubchem assays: 784 ]; format: functional
# Lysosomal acid glucosylceramidase, sequence (P04062 whole entry): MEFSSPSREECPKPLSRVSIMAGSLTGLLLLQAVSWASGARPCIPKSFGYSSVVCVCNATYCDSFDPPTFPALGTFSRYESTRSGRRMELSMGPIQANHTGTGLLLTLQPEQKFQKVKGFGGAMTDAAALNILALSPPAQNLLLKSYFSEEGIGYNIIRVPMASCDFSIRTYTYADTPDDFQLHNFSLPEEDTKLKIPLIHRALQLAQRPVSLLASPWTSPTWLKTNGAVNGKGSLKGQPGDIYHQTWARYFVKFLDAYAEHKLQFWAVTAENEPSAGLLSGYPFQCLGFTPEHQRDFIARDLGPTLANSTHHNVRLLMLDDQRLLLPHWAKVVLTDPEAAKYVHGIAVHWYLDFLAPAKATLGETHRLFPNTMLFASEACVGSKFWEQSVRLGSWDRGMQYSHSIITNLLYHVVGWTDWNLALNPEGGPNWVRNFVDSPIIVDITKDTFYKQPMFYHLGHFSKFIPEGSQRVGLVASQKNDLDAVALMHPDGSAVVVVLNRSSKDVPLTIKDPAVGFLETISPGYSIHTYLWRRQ
# [11] = target: T1, Mannose-6-phosphate isomerase (Homo sapiens, UniProt P34949); assay: inhibitors of human PMI, primary screen, biochemical, fluorescence intensity, coupled assay (AID 1209)
# T1 sequence (P34949 whole entry): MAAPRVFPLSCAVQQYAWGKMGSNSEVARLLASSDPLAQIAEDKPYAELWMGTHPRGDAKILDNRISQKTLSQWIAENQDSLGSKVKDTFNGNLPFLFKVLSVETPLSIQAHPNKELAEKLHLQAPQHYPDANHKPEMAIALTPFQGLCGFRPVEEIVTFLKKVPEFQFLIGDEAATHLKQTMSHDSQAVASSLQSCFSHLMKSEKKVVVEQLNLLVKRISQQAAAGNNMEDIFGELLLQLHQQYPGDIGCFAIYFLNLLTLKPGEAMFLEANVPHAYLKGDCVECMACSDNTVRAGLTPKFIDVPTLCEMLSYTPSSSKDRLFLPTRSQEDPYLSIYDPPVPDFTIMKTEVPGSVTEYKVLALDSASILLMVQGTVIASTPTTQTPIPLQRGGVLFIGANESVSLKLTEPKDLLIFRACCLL
# [12] = target: T1, Mannose-6-phosphate isomerase; assay: human PMI inhibitors, high substrate, primary screen, biochemical, fluorescence intensity, high mannose 6-phosphate (AID 1220)
# [13] = THP-1 cell cytotoxicity, dose response, cytotoxicity control for non-replicating M. tuberculosis project (AID 489025); format: functional
# [14] = target: T2, Replicative DNA helicase DnaB (Mycobacterium tuberculosis, UniProt P9WMR3); assay: DnaB intein splicing inhibitors, dose response, biochemical, cell-free fluorescence (AID 449749); format: functional
# T2 sequence (P9WMR3 whole entry): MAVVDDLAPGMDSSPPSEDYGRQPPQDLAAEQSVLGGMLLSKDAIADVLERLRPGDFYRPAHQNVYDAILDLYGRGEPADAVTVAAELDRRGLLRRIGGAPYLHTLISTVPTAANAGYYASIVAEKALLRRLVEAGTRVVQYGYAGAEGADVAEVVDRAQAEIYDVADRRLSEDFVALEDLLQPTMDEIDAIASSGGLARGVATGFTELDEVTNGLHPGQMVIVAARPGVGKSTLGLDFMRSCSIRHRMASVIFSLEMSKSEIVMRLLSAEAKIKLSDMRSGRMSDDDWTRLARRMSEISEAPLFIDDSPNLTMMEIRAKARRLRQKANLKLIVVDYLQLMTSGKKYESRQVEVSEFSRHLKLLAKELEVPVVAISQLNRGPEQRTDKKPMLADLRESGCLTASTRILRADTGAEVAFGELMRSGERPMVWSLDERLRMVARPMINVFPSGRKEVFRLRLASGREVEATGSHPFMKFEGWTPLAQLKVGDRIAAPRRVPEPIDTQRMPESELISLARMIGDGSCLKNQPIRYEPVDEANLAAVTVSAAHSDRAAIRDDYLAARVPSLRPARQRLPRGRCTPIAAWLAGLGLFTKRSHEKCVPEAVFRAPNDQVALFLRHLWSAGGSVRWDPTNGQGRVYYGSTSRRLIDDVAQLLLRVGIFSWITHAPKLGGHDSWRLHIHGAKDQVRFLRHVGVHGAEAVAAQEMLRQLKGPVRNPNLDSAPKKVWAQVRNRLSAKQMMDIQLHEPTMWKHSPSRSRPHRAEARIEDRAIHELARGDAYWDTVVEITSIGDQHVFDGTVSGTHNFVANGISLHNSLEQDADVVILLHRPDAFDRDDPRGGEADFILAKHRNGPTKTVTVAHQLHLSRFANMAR
# [15] = target: T3, Protein RecA (Mycobacterium tuberculosis, UniProt P9WHJ3); assay: Fluorescence Cell-Free Homogeneous Dose Retest to Identify Inhibitors of RecA-Intein Splicing Activity. [Related pubchem assays (depositor defined):AID2097, AID2223, AID489010, AID492950]; format: functional
# T3 sequence (P9WHJ3 whole entry): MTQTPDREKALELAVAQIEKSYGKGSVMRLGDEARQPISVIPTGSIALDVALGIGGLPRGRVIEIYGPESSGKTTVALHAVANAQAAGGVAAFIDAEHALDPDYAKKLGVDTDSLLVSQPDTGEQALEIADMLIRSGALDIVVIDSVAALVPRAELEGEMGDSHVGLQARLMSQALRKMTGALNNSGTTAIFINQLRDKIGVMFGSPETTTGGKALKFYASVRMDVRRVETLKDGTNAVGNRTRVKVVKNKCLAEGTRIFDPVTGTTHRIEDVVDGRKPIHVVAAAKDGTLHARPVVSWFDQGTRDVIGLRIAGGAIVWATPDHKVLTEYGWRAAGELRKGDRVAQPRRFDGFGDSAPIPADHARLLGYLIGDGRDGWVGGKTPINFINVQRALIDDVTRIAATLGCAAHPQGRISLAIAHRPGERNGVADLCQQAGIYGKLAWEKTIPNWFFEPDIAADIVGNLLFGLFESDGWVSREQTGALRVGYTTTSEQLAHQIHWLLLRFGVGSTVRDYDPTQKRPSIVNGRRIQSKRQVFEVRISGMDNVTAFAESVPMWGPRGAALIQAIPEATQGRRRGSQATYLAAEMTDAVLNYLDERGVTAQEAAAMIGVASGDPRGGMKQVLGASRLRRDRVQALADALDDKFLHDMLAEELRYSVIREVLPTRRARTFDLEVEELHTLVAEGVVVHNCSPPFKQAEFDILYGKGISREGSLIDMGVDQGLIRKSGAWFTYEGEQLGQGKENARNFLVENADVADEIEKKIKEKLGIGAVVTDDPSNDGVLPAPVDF
# [16] = target: T4, Aspartyl aminopeptidase (Plasmodium falciparum 3D7, UniProt Q8I2J3)
# T4 sequence (Q8I2J3 whole entry): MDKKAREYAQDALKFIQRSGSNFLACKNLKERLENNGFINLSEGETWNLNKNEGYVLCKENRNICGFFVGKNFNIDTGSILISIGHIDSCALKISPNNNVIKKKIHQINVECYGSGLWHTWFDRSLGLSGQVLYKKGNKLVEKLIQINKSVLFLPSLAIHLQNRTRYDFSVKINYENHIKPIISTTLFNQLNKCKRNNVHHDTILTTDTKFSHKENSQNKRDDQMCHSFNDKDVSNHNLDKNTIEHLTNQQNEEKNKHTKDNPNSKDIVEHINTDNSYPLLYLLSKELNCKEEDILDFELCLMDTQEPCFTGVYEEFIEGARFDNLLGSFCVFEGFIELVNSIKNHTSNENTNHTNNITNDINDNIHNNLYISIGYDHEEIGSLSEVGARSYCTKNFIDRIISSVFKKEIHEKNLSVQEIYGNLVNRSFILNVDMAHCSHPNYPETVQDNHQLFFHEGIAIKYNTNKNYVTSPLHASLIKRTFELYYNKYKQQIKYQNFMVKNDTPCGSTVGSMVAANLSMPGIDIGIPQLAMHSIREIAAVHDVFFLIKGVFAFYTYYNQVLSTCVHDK
# [17] = target: Procathepsin L (Homo sapiens, UniProt P07711)
# Procathepsin L, sequence (P07711 whole entry): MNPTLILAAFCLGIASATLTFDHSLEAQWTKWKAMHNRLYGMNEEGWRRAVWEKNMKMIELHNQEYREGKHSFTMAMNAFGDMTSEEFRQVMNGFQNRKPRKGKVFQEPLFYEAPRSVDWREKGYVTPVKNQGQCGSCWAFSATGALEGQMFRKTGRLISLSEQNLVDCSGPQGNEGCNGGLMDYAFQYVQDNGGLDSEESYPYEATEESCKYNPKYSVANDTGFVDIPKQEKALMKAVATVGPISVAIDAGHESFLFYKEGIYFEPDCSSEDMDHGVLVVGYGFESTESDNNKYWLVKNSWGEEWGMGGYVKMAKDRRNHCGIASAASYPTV
# [18] = target: Neuropeptides B/W receptor type 1 (Homo sapiens, UniProt P48145); assay: Fluorescence-based dose response cell-based high throughput screening assay to identify antagonists of the G-protein coupled receptor 7 (GPR7). [Related pubchem assays: 1952 (Screening assay (GPR7 antagonists).), 1880 (Summary AID.)]; format: functional
# Neuropeptides B/W receptor type 1, sequence (P48145 whole entry): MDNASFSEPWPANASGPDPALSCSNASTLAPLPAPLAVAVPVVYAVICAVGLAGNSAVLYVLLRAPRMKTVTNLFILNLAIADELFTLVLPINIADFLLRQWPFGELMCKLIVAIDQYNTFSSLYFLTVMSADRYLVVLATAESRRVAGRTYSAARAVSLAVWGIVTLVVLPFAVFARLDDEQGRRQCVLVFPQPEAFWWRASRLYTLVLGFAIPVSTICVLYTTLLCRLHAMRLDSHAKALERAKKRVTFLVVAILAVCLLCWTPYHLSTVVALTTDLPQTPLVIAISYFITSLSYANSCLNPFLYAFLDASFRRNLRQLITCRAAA
# [19] = target: Melanin-concentrating hormone receptor 1 (Homo sapiens, UniProt Q99705); assay: Fluorescence-based counterscreen for antagonists of the G-protein coupled receptor 7 (GPR7): cell-based high throughput dose response assay to identify antagonists of the melanin-concentrating hormone receptor 1 (MCHR1).; format: functional
# Melanin-concentrating hormone receptor 1, sequence (Q99705 whole entry): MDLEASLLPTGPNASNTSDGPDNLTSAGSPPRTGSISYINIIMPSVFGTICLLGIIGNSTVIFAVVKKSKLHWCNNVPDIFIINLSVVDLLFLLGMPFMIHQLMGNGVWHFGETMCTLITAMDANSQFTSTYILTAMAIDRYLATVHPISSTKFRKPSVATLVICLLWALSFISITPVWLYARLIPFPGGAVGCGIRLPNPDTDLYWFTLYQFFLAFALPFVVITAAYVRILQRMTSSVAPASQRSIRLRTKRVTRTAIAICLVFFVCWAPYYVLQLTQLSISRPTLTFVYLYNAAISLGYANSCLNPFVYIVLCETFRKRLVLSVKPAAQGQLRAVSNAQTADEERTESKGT
# [20] = tested on: HEK293; assay: Fluorescence-based counterscreen for potentiators or agonists of NPY-Y2: cell-based high-throughput dose response assay to identify inhibitors of cyclic nucleotide gated ion channel (CNGC) activity. In this assay, the parental HEK293 cell line transfected with a cyclic-nucleotide gated ion channel (CNGC)-based cAMP sensor is used to measure inhibition of isoproterenol-induced CNGC activity by test compound.; format: functional; settings: Homo sapiens;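 note: stimulus is 1 µM isoproterenol at EC100 plus PDE inhibitor Ro 20-1724 at 25 µM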
# [21] = target: Neuropeptide Y receptor type 2 (Homo sapiens, UniProt P49146); assay: Fluorescence-based cell-based high-throughput dose response assay for agonists of NPY-Y2. [Related pubchem assays: 1703 (Screening assay (CNGC inhibitors).), 1359 (Screening assay (NPY-Y2 potentiators or agonists).), 1304 (Screening assay (NPY-Y1 potentiators or agonists).), 1710 (Screening assay (NPY-Y2 agonists).), 1791 (Summary AID.)]; format: functional
# Neuropeptide Y receptor type 2, sequence (P49146 whole entry): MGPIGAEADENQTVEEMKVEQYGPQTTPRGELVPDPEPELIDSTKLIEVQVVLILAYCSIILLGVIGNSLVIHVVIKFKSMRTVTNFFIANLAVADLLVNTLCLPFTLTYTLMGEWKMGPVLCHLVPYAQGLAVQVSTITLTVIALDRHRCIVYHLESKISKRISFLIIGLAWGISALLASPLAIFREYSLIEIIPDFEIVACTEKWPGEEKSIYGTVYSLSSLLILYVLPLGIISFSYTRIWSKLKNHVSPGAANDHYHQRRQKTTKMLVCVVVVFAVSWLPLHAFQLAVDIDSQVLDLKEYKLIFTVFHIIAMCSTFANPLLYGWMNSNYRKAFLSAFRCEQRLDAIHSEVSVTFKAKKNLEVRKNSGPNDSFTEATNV
# [22] = target: Neuropeptide Y receptor type 1 (Homo sapiens, UniProt P25929); assay: Fluorescence-based counterscreen for agonists of NPY-Y2: cell-based high-throughput dose response assay for agonists of NPY-Y1.; format: functional
# Neuropeptide Y receptor type 1, sequence (P25929 whole entry): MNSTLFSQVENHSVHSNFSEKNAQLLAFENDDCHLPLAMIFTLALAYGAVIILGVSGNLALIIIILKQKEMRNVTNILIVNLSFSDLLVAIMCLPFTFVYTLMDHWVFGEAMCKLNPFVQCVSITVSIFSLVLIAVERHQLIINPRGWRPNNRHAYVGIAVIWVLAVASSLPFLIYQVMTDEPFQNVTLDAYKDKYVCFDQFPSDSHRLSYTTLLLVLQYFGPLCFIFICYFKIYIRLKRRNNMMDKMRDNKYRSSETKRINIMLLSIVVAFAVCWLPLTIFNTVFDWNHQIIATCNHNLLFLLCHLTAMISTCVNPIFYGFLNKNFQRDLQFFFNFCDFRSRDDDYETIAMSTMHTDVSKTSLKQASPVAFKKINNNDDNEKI
# [23] = target: T5, Heat shock factor protein 1 (Mus musculus, UniProt P38532); assay: inhibition of MG132-induced HSE-luciferase signal, confirmation, cell-based, NIH3T3, luminescence, dose retest (AID 2382); format: functional;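 note: NIH3T3 fibroblasts with HSF1-driven luciferase reporter stressed by proteasome inhibitor MG132; luminescence from HSF1-driven luciferase expression after 8 hours of MG132 stress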
# T5 sequence (P38532 whole entry): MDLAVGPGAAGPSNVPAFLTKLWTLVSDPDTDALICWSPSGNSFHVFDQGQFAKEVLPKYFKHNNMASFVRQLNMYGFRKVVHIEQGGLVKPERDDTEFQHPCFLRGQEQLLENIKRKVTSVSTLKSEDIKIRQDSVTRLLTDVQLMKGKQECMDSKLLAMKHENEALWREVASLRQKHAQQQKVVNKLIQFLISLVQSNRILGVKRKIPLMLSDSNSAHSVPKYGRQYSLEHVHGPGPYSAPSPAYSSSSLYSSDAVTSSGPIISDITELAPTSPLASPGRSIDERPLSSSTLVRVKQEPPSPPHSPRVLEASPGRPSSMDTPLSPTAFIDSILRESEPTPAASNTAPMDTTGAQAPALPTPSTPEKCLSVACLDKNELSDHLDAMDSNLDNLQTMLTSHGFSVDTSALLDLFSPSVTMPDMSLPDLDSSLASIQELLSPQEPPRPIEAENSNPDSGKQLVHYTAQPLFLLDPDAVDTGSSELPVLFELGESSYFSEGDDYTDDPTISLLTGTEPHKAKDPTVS
# [24] = inhibitors of Bluetongue virus cytopathic effect, confirmation, arbovirus, BSR cells (AID 1250); format: functional;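 note: protection from viral cytopathic effect measured as cell viability by ATP luminescence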
compound,measurement,setting,value
COc1ccc(C(C[N+](=O)[O-])c2c(-c3ccccc3)cc3ccccn23)c(OC)c1 (centres undefined),CC50,[1],> 50 µM (active)
same,CC50,[2],20.3 µM (active)
same,IC50,[3],36.3 µM (active)
Cc1cccc(OCC(=O)NNC(=O)c2cc3ccccc3oc2=O)c1,IC50,[4],> 100 µM (active)
same,IC50,[5],19.4 µM (active)
same,IC50,[6],> 69.5 µM (inactive)
same,IC50,[7],> 69.5 µM (inactive)
C=CCN1CCN(C(c2ccc(Cl)cc2)c2nnnn2CCc2ccc(OC)c(OC)c2)CC1 (centres undefined),IC50,[8],> 50 µM (not active)
same,IC50,[9],> 50 µM (not active)
COC(=O)c1cn(-c2ccccc2)nc1-c1cccnc1,EC50,[10],> 50 µM (not active)
O=Cc1ccnc(-c2ccc(OC(=O)c3ccco3)cc2)n1,IC50,[11],7.4 µM (active)
same,IC50,[12],6.56 µM (active)
same,CC50,[13],> 40 µM (active)
same,AC50,[14],5.71 µM (active)
same,EC50,[15],16.8 µM (active)
Cc1cccc(N=C(S)Nn2cnnc2)c1C,IC50,[16],1.9 µM (active)
same,IC50,[17],> 59.6 µM (not active)
CCOC(=O)c1c[nH]nc1N=C(S)Nc1ccc(OC)cc1,IC50,[18],> 43.8 µM (not active)
same,IC50,[19],> 14.6 µM (not active)
COc1ccc(COC(=O)c2ccc3c(=O)n4c(nc3c2)CCC4)cc1F,EC50,[20],> 35.4 µM (not active)
same,EC50,[21],> 35.4 µM (not active)
same,EC50,[22],> 35.4 µM (not active)
COc1ccc2ccccc2c1/C=N/N1C(=O)CSC1=S,EC50,[23],> 195 µM (not active)
same,IC50,[24],21.1 µM (active)
